This note sets out measurements from US10722520B2, “Heterocyclic compounds and their use in preventing or treating bacterial infections” (MUTABILIS, priority 2016, dated 2020).

Where two headings read alike, the source gives them in different places.

For assay [1], the target named is T1, AmpC (P99) (Enterobacter cloacae, UniProt P05364). The assay can be described thus: biochemical.
The target of the next assay is AmpC (PAE) (Pseudomonas aeruginosa, UniProt P24735). To be noted: read-out: IC50 β-lactamase AmpC (PAE); class (C); nitrocefin 200 μM, 30-min pre-incubation, enzyme 0.4 nM.
In assay [2] the target is T1, AmpC (P99). The settings on record: read-out: IC50 β-lactamase AmpC (P99); class (C); nitrocefin 200 μM, 30-min pre-incubation, enzyme 0.2 nM.
The next assay concerns the target OXA-15 (Pseudomonas aeruginosa, UniProt Q51574). To be noted: read-out: IC50 β-lactamase OXA-15; class (D); nitrocefin 200 μM, 30-min pre-incubation, enzyme 0.4 nM.

T1 sequence (P05364 21-381): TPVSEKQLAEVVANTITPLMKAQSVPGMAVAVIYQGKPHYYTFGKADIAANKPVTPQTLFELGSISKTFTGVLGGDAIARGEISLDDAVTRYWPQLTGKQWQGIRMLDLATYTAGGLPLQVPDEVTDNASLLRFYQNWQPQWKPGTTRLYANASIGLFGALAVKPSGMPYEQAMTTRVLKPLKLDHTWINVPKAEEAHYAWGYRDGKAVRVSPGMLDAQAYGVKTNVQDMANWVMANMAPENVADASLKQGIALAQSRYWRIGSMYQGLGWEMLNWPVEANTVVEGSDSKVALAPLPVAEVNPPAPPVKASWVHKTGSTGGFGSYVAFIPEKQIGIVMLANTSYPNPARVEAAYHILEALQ
Chain of AmpC (PAE) (P24735 27-397): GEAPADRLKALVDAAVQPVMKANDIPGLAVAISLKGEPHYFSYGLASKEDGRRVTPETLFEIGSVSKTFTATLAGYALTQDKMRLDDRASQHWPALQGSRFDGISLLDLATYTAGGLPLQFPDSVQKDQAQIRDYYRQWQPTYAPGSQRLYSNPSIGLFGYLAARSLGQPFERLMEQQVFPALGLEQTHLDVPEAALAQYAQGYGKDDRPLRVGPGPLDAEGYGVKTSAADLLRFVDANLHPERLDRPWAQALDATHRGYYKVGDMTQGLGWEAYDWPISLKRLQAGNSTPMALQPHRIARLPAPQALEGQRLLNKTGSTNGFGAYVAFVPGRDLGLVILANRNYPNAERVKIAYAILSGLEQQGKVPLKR
Chain of OXA-15 (Q51574 22-275): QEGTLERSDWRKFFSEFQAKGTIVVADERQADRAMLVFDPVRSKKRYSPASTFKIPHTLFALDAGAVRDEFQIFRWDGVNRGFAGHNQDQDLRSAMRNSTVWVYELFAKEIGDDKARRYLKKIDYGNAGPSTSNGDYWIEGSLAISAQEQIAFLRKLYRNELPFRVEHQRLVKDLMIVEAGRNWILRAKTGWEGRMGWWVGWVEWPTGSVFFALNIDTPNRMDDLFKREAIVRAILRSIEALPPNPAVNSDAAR

A word on the IC50: it is the concentration that gives 50% inhibition. `O=C1N2CC(n3cncn3)=CC(C2)N1OS(=O)(=O)[O-].[Na+]` (centres unmarked) [Example 5, sodium [7-oxo-3-(1,2,4-triazol-1-yl)-1,6-diazabicyclo[3.2.1]oct-3-en-6-yl]sulfate] had an IC50 against AmpC (P99) [1] of 16 nM.

In the case of `O=C1N2CC(n3ccnn3)=CC(C2)N1OS(=O)(=O)[O-].[Na+]` (centres unmarked) [Example 2, sodium [7-oxo-3-(triazol-1-yl)-1,6-diazabicyclo[3.2.1]oct-3-en-6-yl]sulfate], the figures for the concentration for half-maximal inhibition (IC50) on AmpC (PAE), on AmpC (P99) [2] and on OXA-15 were 150 nM, 10 nM and 40 nM, respectively.

The compound `O=C1N2CC(n3ccsc3=O)=CC(C2)N1OS(=O)(=O)[O-].[Na+]` (centres unmarked) [Example 1, Sodium [7-oxo-3-(2-oxo-thiazol-3-yl)-1,6-diaza-bicyclo[3.2.1]oct-3-en-6-yl]sulfate] yielded an IC50 at AmpC (P99) [1] of 30 nM.
